# Biological target: T1, rat NaPi-2b (Rattus norvegicus, UniProt Q9JJ09)
# T1 construct: expressed in transfected cells; host or cells: Xenopus oocytes injected with cRNA
# T1 sequence (Q9JJ09 1-695): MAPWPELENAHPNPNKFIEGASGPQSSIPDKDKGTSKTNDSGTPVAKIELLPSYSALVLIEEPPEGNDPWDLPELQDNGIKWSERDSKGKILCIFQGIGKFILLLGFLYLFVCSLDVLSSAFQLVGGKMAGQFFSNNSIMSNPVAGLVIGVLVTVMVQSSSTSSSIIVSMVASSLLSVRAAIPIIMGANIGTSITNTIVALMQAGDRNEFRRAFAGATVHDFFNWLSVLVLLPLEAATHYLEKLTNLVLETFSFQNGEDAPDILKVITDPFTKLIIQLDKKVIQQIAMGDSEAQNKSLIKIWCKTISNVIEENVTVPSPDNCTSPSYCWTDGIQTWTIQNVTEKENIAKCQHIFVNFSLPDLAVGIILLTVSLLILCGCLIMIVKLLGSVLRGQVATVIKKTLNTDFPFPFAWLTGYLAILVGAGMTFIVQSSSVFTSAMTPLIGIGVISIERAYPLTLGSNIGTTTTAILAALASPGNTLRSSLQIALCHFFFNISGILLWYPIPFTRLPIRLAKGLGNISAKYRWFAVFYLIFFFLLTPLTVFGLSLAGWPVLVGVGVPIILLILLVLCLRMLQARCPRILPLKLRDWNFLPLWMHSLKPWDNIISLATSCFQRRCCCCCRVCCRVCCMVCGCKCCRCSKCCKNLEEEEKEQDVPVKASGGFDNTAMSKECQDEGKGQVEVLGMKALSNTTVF
# Experiment: Sodium-dependent phosphate uptake of Xenopus oocytes which expressed NaPi-2b (32P)
# Format: cell-based
# Settings: Xenopus oocytes expressing rat NaPi-2b, 32P radioactive phosphorus; read-out: IC50 (phosphate uptake inhibitory activity)
# Procedure, shortened: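 Oocytes injected with rat NaPi-2b cRNA, cultured 2 d, then 32P uptake measured with compound. Values: % inhibition at 300 and 100 μM, both from one inhibition curve.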
row,IC50 [µM],SMILES
1,3,"Cc1ccc(/C=N/NC(=O)c2ccccc2NC(=O)c2ccncc2)cc1 [Compound 137, N-[2-(4-Methyl-benzylidene-hydrazinocarbonyl)-phenyl]-isonicotinamide]"
2,4.47,"Cc1ccc(/C=N/NC(=O)c2ccccc2NC(=O)c2ccncc2)cc1C [Compound 138, N-[2-(3,4-Dimethyl-benzylidene-hydrazinocarbonyl)-phenyl]-isonicotinamide]"
3,55.5,"COc1ccc(C(=O)Nc2ccc(OCCN(C)C)cc2C(=O)N/N=C/c2ccc(F)cc2)cc1OC [Compound 139, N-[4-(2-Dimethylamino-ethoxy-)-2-(4-fluoro-benzylidene-hydrazinocarbonyl)-phenyl]-3,4-dimethoxy-benzamide]"
4,74.2,"CCN(CC)CCOc1ccc(NC(=O)c2ccc(OC)c(OC)c2)c(C(=O)N/N=C/c2ccc(F)cc2)c1 [Compound 140, N-[4-(2-Diethylamino-ethoxy)-2-(4-fluoro-benzylidene-hydrazinocarbonyl)-phenyl]-3,4-dimethoxy-benzamide]"
5,5.78,"COc1ccc(NC(=O)c2ccc(OC)c(OC)c2)c(C(=O)N/N=C/c2cccc(F)c2)c1 [Compound 141, N-[2-(3-Fluoro-benzylidene-hydrazinocarbonyl)-4-methoxy-phenyl]-3,4-dimethoxy-benzamide]"
6,9.2,"COc1ccc(NC(=O)c2ccc(OC)c(OC)c2)c(C(=O)N/N=C/c2ccc(F)cc2)c1 [Compound 142, N-[2-(4-Fluoro-benzylidene-hydrazinocarbonyl)-4-methoxy-phenyl]-3,4-dimethoxy-benzamide]"
7,5.88,"COc1ccc(NC(=O)c2ccc(OC)c(OC)c2)c(C(=O)N/N=C/c2cccc(C)c2)c1 [Compound 143, 3,4-Dimethoxy-N-[4-methoxy-2-(3-methyl-benzylidene-hydrazinocarbonyl)-phenyl]-benzamide]"
8,5.02,"COc1ccc(NC(=O)c2ccc(OC)c(OC)c2)c(C(=O)N/N=C/c2ccc(C)cc2)c1 [Compound 144, 3,4-Dimethoxy-N-[4-methoxy-2-(4-methyl-benzylidene-hydrazinocarbonyl)-phenyl]-benzamide]"
9,3.82,"COc1ccc(NC(=O)c2ccc(OC)c(OC)c2)c(C(=O)N/N=C/c2ccc(C)c(C)c2)c1 [Compound 145, N-[2-(3,4-Dimethyl-benzylidene-hydrazinocarbonyl)-4-methoxy-phenyl]-3,4-dimethoxy-benzamide]"
10,1.99,"COc1ccc(C(=O)Nc2ccc(C)cc2C(=O)N/N=C/c2cccc(F)c2)cc1OC [Compound 146, N-[2-(3-Fluoro-benzylidene-hydrazinocarbonyl)-4-methyl-phenyl]-3,4-dimethoxy-benzamide]"
11,7.68,"COc1ccc(C(=O)Nc2ccc(C)cc2C(=O)N/N=C/c2ccc(F)cc2)cc1OC [Compound 147, N-[2-(4-Fluoro-benzylidene-hydrazinocarbonyl)-4-methyl-phenyl]-3,4-dimethoxy-benzamide]"
12,15.6,"COc1ccc(C(=O)Nc2ccc(C)cc2C(=O)N/N=C/c2cccc(C)c2)cc1OC [Compound 148, 3,4-Dimethoxy-N-[4-methyl-2-(3-methyl-benzylidene-hydrazinocarbonyl)-phenyl]-benzamide]"
13,5.51,"COc1ccc(C(=O)Nc2ccc(C)cc2C(=O)N/N=C/c2ccc(C)cc2)cc1OC [Compound 149, 3,4-Dimethoxy-N-[4-methyl-2-(4-methyl-benzylidene-hydrazinocarbonyl)-phenyl]-benzamide]"
14,1.09,"COc1ccc(C(=O)Nc2ccc(C)cc2C(=O)N/N=C/c2ccc(C)c(C)c2)cc1OC [Compound 150, N-[2-(3,4-Dimethyl-benzylidene-hydrazinocarbonyl)-4-methyl-phenyl]-3,4-dimethoxy-benzamide]"
15,3.07,"O=C(Nc1ccc(Br)cc1C(=O)N/N=C/c1cccc(F)c1)c1ccco1 [Compound 151, Furan-2-carboxylic acid [4-bromo-2-(3-fluoro-benzylidene-hydrazinocarbonyl)-phenyl]-amide]"
16,1.48,"O=C(Nc1ccc(Br)cc1C(=O)N/N=C/c1ccc(F)cc1)c1ccco1 [Compound 152, Furan-2-carboxylic acid [4-bromo-2-(4-fluoro-benzylidene-hydrazinocarbonyl)-phenyl]-amide]"
17,3.5,"Cc1cccc(/C=N/NC(=O)c2cc(Br)ccc2NC(=O)c2ccco2)c1 [Compound 153, Furan-2-carboxylic acid [4-bromo-2-(3-methyl-benzylidene-hydrazinocarbonyl)-phenyl]-amide]"

row,IC50 [µM],SMILES
1,2.37,"Cc1ccc(/C=N/NC(=O)c2cc(Br)ccc2NC(=O)c2ccco2)cc1 [Compound 154, Furan-2-carboxylic acid [4-bromo-2-(4-methyl-benzylidene-hydrazinocarbonyl)-phenyl]-amide]"
2,0.32,"Cc1ccc(/C=N/NC(=O)c2cc(Br)ccc2NC(=O)c2ccco2)cc1C [Compound 155, Furan-2-carboxylic acid [4-bromo-2-(3,4-dimethyl-benzylidene-hydrazinocarbonyl)-phenyl]-amide]"
3,0.46,"O=C(Nc1ccc(Br)cc1C(=O)N/N=C/c1ccc(Cl)c(C(F)(F)F)c1)c1ccco1 [Compound 156, Furan-2-carboxylic acid [4-bromo-2-(4-chloro-3-trifluoromethyl-benzylidene-hydrazinocarbonyl)-phenyl]-amide]"
4,3.28,"O=C(Nc1ccc(Br)cc1C(=O)N/N=C/c1ccc(F)cc1)c1cccs1 [Compound 158, Thiophene-2-carboxylic acid [4-bromo-2-(4-fluoro-benzylidene-hydrazinocarbonyl)-phenyl]-amide]"
5,4.35,"Cc1cccc(/C=N/NC(=O)c2cc(Br)ccc2NC(=O)c2cccs2)c1 [Compound 159, Thiophene-2-carboxylic acid [4-bromo-2-(3-methyl-benzylidene-hydrazinocarbonyl)-phenyl]-amide]"
6,0.93,"Cc1ccc(/C=N/NC(=O)c2cc(Br)ccc2NC(=O)c2cccs2)cc1 [Compound 160, Thiophene-2-carboxylic acid [4-bromo-2-(4-methyl-benzylidene-hydrazinocarbonyl)-phenyl]-amide]"
7,0.96,"Cc1ccc(/C=N/NC(=O)c2cc(Br)ccc2NC(=O)c2cccs2)cc1C [Compound 161, Thiophene-2-carboxylic acid [4-bromo-2-(3,4-dimethyl-benzylidene-hydrazinocarbonyl)-phenyl]-amide]"
8,3.11,"O=C(Nc1ccc(Br)cc1C(=O)N/N=C/c1ccc(Cl)c(C(F)(F)F)c1)c1cccs1 [Compound 162, Thiophene-2-carboxylic acid [4-bromo-2-(4-chloro-3-trifluoromethyl-benzylidene-hydrazinocarbonyl)-phenyl]-amide]"
9,27.9,"O=C(Nc1ccc(Br)cc1C(=O)N/N=C/c1cccc(F)c1)c1ccncc1 [Compound 166, N-[4-Bromo-2-(3-fluoro-benzylidene-hydrazinocarbonyl)-phenyl]-isonicotinamide]"
10,30.2,"O=C(Nc1ccc(Br)cc1C(=O)N/N=C/c1ccc(F)cc1)c1ccncc1 [Compound 167, N-[4-Bromo-2-(4-fluoro-benzylidene-hydrazinocarbonyl)-phenyl]-isonicotinamide]"
11,4.84,"Cc1cccc(/C=N/NC(=O)c2cc(Br)ccc2NC(=O)c2ccncc2)c1 [Compound 168, N-[4-Bromo-2-(3-methyl-benzylidene-hydrazinocarbonyl)-phenyl]-isonicotinamide]"
12,4.24,"Cc1ccc(/C=N/NC(=O)c2cc(Br)ccc2NC(=O)c2ccncc2)cc1 [Compound 169, N-[4-Bromo-2-(4-methyl-benzylidene-hydrazinocarbonyl)-phenyl]-isonicotinamide]"
13,5.34,"Cc1ccc(/C=N/NC(=O)c2cc(Br)ccc2NC(=O)c2ccncc2)cc1C [Compound 170, N-[4-Bromo-2-(3,4-dimethyl-benzylidene-hydrazinocarbonyl)-phenyl]-isonicotinamide]"
14,5.12,"O=C(Nc1ccc(Br)cc1C(=O)N/N=C/c1ccc(Cl)c(C(F)(F)F)c1)c1ccncc1 [Compound 171, N-[4-Bromo-2-(4-chloro-3-trifluoromethyl-benzylidene-hydrazinocarbonyl)-phenyl]-isonicotinamide]"
15,2.74,"O=C(Nc1ccc(Br)cc1C(=O)N/N=C/c1cccc(F)c1)c1cccnc1 [Compound 172, N-[4-Bromo-2-(3-fluoro-benzylidene-hydrazinocarbonyl)-phenyl]-nicotinamide]"
16,7.4,"O=C(Nc1ccc(Br)cc1C(=O)N/N=C/c1ccc(F)cc1)c1cccnc1 [Compound 173, N-[4-Bromo-2-(4-fluoro-benzylidene-hydrazinocarbonyl)-phenyl]-nicotinamide]"
17,12.5,"Cc1cccc(/C=N/NC(=O)c2cc(Br)ccc2NC(=O)c2cccnc2)c1 [Compound 174, N-[4-Bromo-2-(3-methyl-benzylidene-hydrazinocarbonyl)-phenyl]-nicotinamide]"
